Experimental data taken from patent US20160317391A1, “MEDIA MILLING PROCESS FOR THE MANUFACTURE OF ACTIVE PHARMACEUTICAL INGREDIENTS IN PROPELLANTS” (MERCK SHARP & DOHME CORP., priority 2013, published 2016).
Several values for one entry are separate records, joined by “and”; a condition that tells them apart may be missing. Equal values may be shown once.

Legend:
[1] = Particle size distribution (X50, X90) before and after HFA-LabRAM media milling, […] particle size analyzer; type: physicochemical; conditions: for PSD after HFA Milling X50 / PSD after HFA Milling X90: 80% power; for particle size (X50) prior to HFA-based RAM milling: unmilled; for X50 after RAM-milling: grades ML001 and SV003
Description: In a typical RAM based media milling process (see FIG. 1), API is added to a glass bottle along with Yttria zirconia (YTZ, diameters ranging from about 0.1 to about 2 mm) beads. Preferred bead sizes are from about 0.05 to about 5 mm. Another preferred bead size is from about 0.1 to about 2 mm. Other components that can be added to the API-bead mixture include stabilizers and surfactants that can augment the milling process. The ratio of the beads to that of the formulation components can be varied to suit the needs of particle size requirements. Particularly preferred ratios of beads to formulation components are from 40:1, 20:1, 15:1, 10:1 and 5:1. The bottle is crimp sealed and filled with appropriate amounts of either HFA227 or HFA134a (or a combination of both at varying ratios). The bottle is then loaded onto a RAM device and milled for a specified duration of time and at a specified power. Milling times include between about 5 minutes to about 300 minutes. Preferred milling times are from about 30 minutes to about 200 minutes and 60 minutes to about 120 minutes. Power includes about 10% to about 100% power. Preferred power range is about 40% to about 100%. Further, preferred power range is about 75% to about 100%. In most cases, the process can proceed to completion without stoppage. However, because of the ease and simplicity of the process, the process flow can be readily altered by stopping the media milling at intermittent time points for a known period of time before restarting the process again. This may be performed to cool the contents of the bottle at regular intervals. After completion, the bottle is allowed to revert to room temperature (if needed) to rapidly vent the HFA. After the process is finished the contents of the bottle (API, any excipients and/or additives, and the beads) are then added to a sieve of appropriate mesh size to separate the beads and the API. The milled API is collected and stored at 0% RH (in a nitrogen glove box) for further use.
GP was milled utilizing LabRAM in both HFA134a and HFA227. The milling was accomplished at different parameters of solids ratio, milling duration and power. YTZ beads ([…]) were utilized.
Lactose is an excipient that is FDA approved and is utilized as a carrier in dry powder inhalers. In one variation of the milling study, β-lactose (anhydrous) purchased from sigma-aldrich was subjected to HFA (HFA227) based media milling using LabRAM at a preset power of 80% and for a duration of 70 minutes. The ratio of YTZ beads ([…]) to β-lactose was maintained at 20:1. Particle size (X50) of β-lactose prior to HFA-based RAM milling was 153.6±7.4 μm. Upon subjecting the unmilled lactose to RAM-milling under the aforementioned conditions, the particle size (X50) of β-lactose was 3.47±0.01 μm.

[2] = DSC thermograms of unmilled and HFA-LabRAM milled material (solid state); type: physicochemical; conditions: milled versus unmilled material
Description: With respect to the examples below, the milled API was subject to DSC and the thermograms compared to that of the neat unmilled API. The data from the thermograms clearly indicate that the RAM based HFA-milled API maintains its crystalline structure (FIG. 2B). It was also confirmed that the RAM milling process minimized the undesirable amorphous material generation during milling.

[3] = HFA227, 60 mins, API:Bead ratio (w/w) 20, in µm (unit assumed)
[4] = HFA227, 86 min, API:Bead ratio (w/w) 20, in µm (unit assumed)
[5] = HFA227, 90 min, 5 min stop @45, 10 min stop, 90% power for additional 3 mins, API:Bead ratio (w/w) 20, in µm (unit assumed)
[6] = HFA227, 90 min, 5 min stop @45, API:Bead ratio (w/w) 10, in µm (unit assumed)
[7] = HFA227, 105 mins, API:Bead ratio (w/w) 20, in µm (unit assumed)
[8] = unmilled GP, in µm (unit assumed)

C[N+]1(C)CCC(OC(=O)C(O)(c2ccccc2)C2CCCC2)C1 (centres unmarked) [GP, glycopyrrolate bromide]
X50 after LabRAM milling, all cases ([1]; HFA134a and HFA227, different solids ratio, milling duration and power, YTZ beads): less than 3 μm
average X50 after LabRAM milling ([1]; HFA134a, increased solids ratio): 1.5 μm
PSD after HFA Milling X50 [1, 3]: 3.49 ± 0.02
PSD after HFA Milling X90 [1, 3]: 15.93 ± 0.14
PSD after HFA Milling X50 [1, 4]: 1.7
PSD after HFA Milling X90 [1, 4]: 4.53 ± 0.21
PSD after HFA Milling X50 [1, 5]: 1.37 ± 0.13
PSD after HFA Milling X90 [1, 5]: 3.67 ± 0.03
PSD after HFA Milling X50 [1, 6]: 1.7 and 1.53 ± 0.06
PSD after HFA Milling X90 [1, 6]: 3.87 ± 0.12 and 3.67 ± 0.06
PSD after HFA Milling X50 [1, 7]: 2.62 ± .01
PSD after HFA Milling X90 [1, 7]: 9.83 ± 0.01
particle size (X50) prior to HFA-based RAM milling [1]: ca. 51 μm
PSD before HFA Milling X50 [1, 8]: 52.77 ± 1.55 and 52.77 ± 1.56 and 52.77 ± 1.57 and 52.77 ± 1.54
PSD before HFA Milling X90 [1, 8]: 134.7 ± 9.10 and 134.7 ± 9.11 and 134.7 ± 9.12 and 134.7 ± 9.9
solid state after HFA-LabRAM milling (DSC) [2]: no change in the polymorphic state

OC[C@H]1O[C@@H](O[C@H]2[C@H](O)[C@@H](O)[C@H](O)O[C@@H]2CO)[C@H](O)[C@@H](O)[C@H]1O [β-lactose]
particle size (X50) of the recovered product ([1]; HFA134a, bead to lactose ratio 40:1, 60 minute duration): 2.3 μm
particle size (X50) after RAM-milling ([1]; HFA227, power 80%, 70 minutes, YTZ beads to β-lactose 20:1): 3.47±0.01 μm
particle size (X50) prior to HFA-based RAM milling [1]: 153.6±7.4 μm
solid state after HFA-LabRAM milling (DSC) [2]: crystalline
solid state after HFA-LabRAM milling (DSC) ([2]; listed as lactose): no glass transition

C[N+]1(C)CCC(OC(=O)C(O)(c2ccccc2)C2CCCC2)C1.[Br-] (centres unmarked) [HFA-LabRAM milled GP, glycopyrrolate bromide]
particle size (X50) at start of storage (75% RH and 25° C. study, initial value): 1.54 μm
particle size (X50) after storage (75% RH and 25° C., within a span of 24 h): 1.78 μm
increase in PSD (75% RH and 40° C., within 20 h): 0.5 μm

C[N+]1(C)CCC(OC(=O)C(O)(c2ccccc2)C2CCCC2)C1.[Br-] (centres unmarked) [jet milled GP, glycopyrrolate bromide]
time within which X50 / particle size doubles (75% RH and 40° C.): ≤ 6 h
particle size shown at 24 h (visual observation) (75% RH and 40° C., 24 h, visual observation, […]): 10 μm
increase in the size of the API (75% RH and 40° C., within 24 h): 100 fold

O.OC[C@H]1O[C@@H](O[C@H]2[C@H](O)[C@@H](O)C(O)O[C@@H]2CO)[C@H](O)[C@@H](O)[C@H]1O (some centres unmarked) [Lactose monohydrate]
X50 after RAM-milling ([1]; HFA134a, similar conditions): 1.9 μm
X50 after RAM-milling ([1]; HFA227): less than 3 μm
